These results are taken from patent US20020156277A1, “Synthesis and methods of use of purine analogues and derivatives” (priority 2001, published 2002).

In one test the test system is mice. The experiment in a line: Passive avoidance test (block of cycloheximide-induced amnesia). It counts as in vivo. The settings on record: Mus musculus, 2 h, intraperitoneal administration two hours prior to training, amnestic agent 30 mg/kg cycloheximide i.p., read-out: minimum effective dose (MED). As for the experimental part: Passive avoidance is an acute memory paradigm in which mice are allowed to enter a dark compartment from a lighted compartment, but are given a footshock (2 mA for 5 seconds) when they enter the dark compartment. […] If an amnestic agent (30 mg/kg cycloheximide i.p. in saline) immediately after the training session is given to the animals, they will make the transition into the dark compartment (i.e., memory of the shock is lost). Compounds with suspected nootropic or anti-amnestic effects are given by i.p. administration two hours prior to the training trial in attempt to block the effects of cycloheximide. […] This behavioral response is defined as passive avoidance. A no effect response in this test is defined as a failure to stay in the lighted compartment for 120 seconds.
For `CCOC(=O)c1ccc(NC(=O)CCn2cnc3c(=O)[nH]c(=O)[nH]c32)cc1` [Example 5, 4-[3-(2,6-dioxo-1,2,3,6-tetrahydropurin-9-yl)propionylamino]benzoic acid ethyl ester], the minimal effective dose worked out at 0.001 mg/kg. Same read-out and setting: next, `CCOC(=O)c1ccc(NC(=O)CCn2cnc3c(=O)n(C)cnc32)cc1` [Example 3, 4-[3-(1-methyl-6-oxo-1,6-dihydropurin-9-yl)propionylamino]benzoic acid ethyl ester]: 0.1 mg/kg; `CCCCc1nc2c(ncn2C(C)C(=O)Nc2ccc(C(=O)OCC)cc2)c(=O)[nH]1` (stereo not drawn) [Example 10, 4-[2-(2-butyl-6-oxo-1,6-dihydropurin-9-yl)propionylamino]benzoic acid ethyl ester]: 0.1 mg/kg. On the same count and under the same terms, the result for `CCOC(=O)c1ccc(NC(=O)CCn2cnc3c(Cl)nc(N)nc32)cc1` [Example 8, 4-[3-(2-amino-6-chloropurin-9-yl)propionylamino]benzoic acid ethyl ester] reads 0.01 mg/kg; that for `CCCCn1cnc2c(ncn2CCC(=O)Nc2ccc(C(=O)OCC)cc2)c1=O` [Example 2, 4-[3-(1-butyl-6-oxo-1,6-dihydropurin-9-yl)propionylamino]benzoic acid ethyl ester], 0.001 mg/kg. In the case of `CCOC(=O)c1ccc(NC(=O)C(C)n2cnc3c(=O)[nH]c(-c4ccccc4)nc32)cc1` (stereo not drawn) [Example 11, 4-[2-(6-oxo-2-phenyl-1,6-dihydropurin-9-yl)propionylamino]benzoic acid ethyl ester], the minimal effective dose turned out to be 10 mg/kg.

On to `CCOC(=O)c1ccc(NC(=O)CCn2cnc3c(=O)n(Cc4ccccc4)cnc32)cc1` [Example 1, 4-[3-(1-benzyl-6-oxo-1,6-dihydropurin-9-yl)propionylamino]benzoic acid ethyl ester], for which the minimal effective dose came to 0.0003 mg/kg.

In the case of `O=C(CCn1cnc2c(=O)n(Cc3ccccc3)cnc21)NCCCN1CCCC1=O` [Example 13, 3-(1-benzyl-6-oxo-1,6-dihydropurin-9-yl)-N-[3-(2-oxopyrrolidin-1-yl)propyl]propionamide], the minimal effective dose was 1 mg/kg.

On to `O=C(CCn1cnc2c(=O)n(Cc3ccccc3)cnc21)NCCNC(=O)CN1CCCC1=O` [Example 14, 3-(1-benzyl-6-oxo-1,6-dihydropurin-9-yl)-N-{2-[2-(2-oxopyrrolidin-1-yl)acetylamino]ethyl}propionamide], for which the minimal effective dose was found to be 1 mg/kg. For the molecule `CCOC(=O)c1ccc(NC(=O)C(C)n2cnc3c(=O)[nH]c(=S)[nH]c32)cc1` (stereo not drawn) [Example 9, 4-[2-(6-oxo-2-thioxo-1,2,3,6-tetrahydropurin-9-yl)propionylamino]benzoic acid ethyl ester], the minimal effective dose came to 0.0001 mg/kg. The same measure, in the same setting: next, `COC(=O)c1ccc(N(C)C(=O)CCn2cnc3c(Cl)ncnc32)cc1` [Example 12, 4-{[3-(6-chloropurin-9-yl)propionyl]methylamino}benzoic acid methyl ester]: 0.0001 mg/kg. On the same count and under the same terms, the result for `CCOC(=O)c1ccc(NC(=O)CCn2cnc3c(N(C)C)ncnc32)cc1` [Example 7, 4-[3-(6-dimethylaminopurin-9-yl)propionylamino]benzoic acid ethyl ester] reads 0.01 mg/kg; that for `CCOC(=O)c1ccc(NC(=O)CCn2cnc3c(=O)n(CCN(C)C)cnc32)cc1` [Example 4, 4-[3-(1-(2-dimethylaminoethyl)-6-oxo-1,6-dihydropurin-9-yl)propionylamino]benzoic acid ethyl ester], 1 mg/kg.

The subject of a further test is mice. The test is described as above. It counts as in vivo. The settings on record: Mus musculus, oral administration, amnestic agent 30 mg/kg cycloheximide i.p., read-out: minimum effective dose (MED).
Take `CCOC(=O)c1ccc(NC(=O)CCn2cnc3c(=O)n(Cc4ccccc4)cnc32)cc1` [Example 1, 4-[3-(1-benzyl-6-oxo-1,6-dihydropurin-9-yl)propionylamino]benzoic acid ethyl ester]: the minimal effective dose amounted to 0.01 mg/kg.

In the case of `CCOC(=O)c1ccc(NC(=O)C(C)n2cnc3c(=O)[nH]c(=S)[nH]c32)cc1` (stereo not drawn) [Example 9, 4-[2-(6-oxo-2-thioxo-1,2,3,6-tetrahydropurin-9-yl)propionylamino]benzoic acid ethyl ester], the minimal effective dose worked out at 0.001 mg/kg.
